“Also recorded” adds a separate entry of the source. Like-named read-outs stand apart in the source and are kept apart here.
Columns and labels:
[1] = tested on: GPR81 receptor / intracellular cAMP levels in astrocytes; test: FRET measurements of cAMP in living primary astrocytes transfected with AKAR2; assay type: cell-based, rat
Text: Astrocytes expressing Epac1-camps or AKAR2 FRET construct were examined with a Plan NeoFluoar 40×/1.3 Oil DIC immersion objective (Carl Zeiss, Jena, Germany) and 2-fold zoom factor using Zeiss LSM510 META confocal microscope (Carl Zeiss, Jena, Germany). Cells were excited at 458 nm and images (512×512) were acquired every 3.5 s or 7 s using Lambda stack acquisition. Emission spectra were collected from META detector in eight channels (lambda stack) ranging from 470 nm to 545 nm, each with a 10.7-nm width. Two-channel (CFP and YFP) images were generated from lambda stacks by analytical software “Extract channels”. […] YFP and CFP fluorescence intensities were quantified within a region of interest selected for individual cell expressing Epac1-camps or AKAR2 using LSM 510 META software. In the graphs, FRET signal is reported as the ratio of YFP to CFP fluorescence signal after subtracting the background fluorescence from both YFP and CFP signals using Sigma Plot. […]
The changes in YFP/CFP fluorescence emission ratio were normalized to baseline ratio values. Single-exponential (F=F0+c×exp (−t/τ)) decay functions or single-exponential rise to maximum functions (F=F0+c×(1−exp(−t/τ))) were fitted to the diagrams with YFP/CFP fluorescence emission ratios using SigmaPlot. The time-constant (τ) and YFP/CFP emission ratio amplitudes (c) were determined from the fitted curves. […]

astrocytes [2] = details: within an hour
Text: (§1) LSM 510 Meta software was used to measure cell area and perimeter of isolated Epac1-camps positive astrocytes before and after treatment of cell with different reagents.

astrocytes [3] = test: Hypotonically induced cell swelling (cell surface area) of astrocytes; assay type: cell-based; details: pretreated cells, hypotonic medium ~60% of control osmolarity
Text: as §1

[Ca2+]i in astrocytes = Fluo-4 AM measurements of [Ca2+]i in cultured astrocytes; assay type: cell-based; details: for effect on hypotonicity-elicited periodic elevations in [Ca2+]i: 1 μM ADR or 10 μM Iso applied after hypotonic medium; for intracellular calcium levels on simultaneous treatment with hypotonic medium: 1 μM ADR or 10 μM Iso with hypotonic medium; for effect on ATP-induced elevation in cytosolic calcium levels: 1 mM ATP + 1 μM ADR or 10 μM Iso; for oscillations in intracellular calcium levels: agent alone: 1 μM ADR; for oscillations in intracellular calcium levels / intracellular Ca2+ levels (F/F0) within first 100 s after stimulation: 10 μM Iso; for intracellular Ca2+ levels (F/F0) within first 100 s after stimulation: agent alone: 1 mM ATP
Protocol: Live astrocytes were incubated for 30 min at room temperature in medium containing 2 μM of fluorescent dye Fluo-4 AM (Molecular Probes, Invitrogen, Eugene, Oreg., USA). Astrocytes were then transferred to dye-free standard saline solution for at least 30 min before experimentation to allow for cleavage of the AM ester group. Time lapse images were obtained every 3.5 s for up to 10 min with the inverted Zeiss LSM780 confocal microscope with oil-immersion plan apochromatic objective (63×, 1.4 NA) and 488-nm Ar-Ion laser excitation. Emission light was acquired with a 505-530-nm bandpass emission filter. […] Average fluorescence intensity before stimulation of each cell was subtracted from intensities after stimulation (ΔF). Average fluorescence intensity changes normalized to baseline fluorescence intensity (F/F0) were determined for the first 100 s after stimulation.

astrocytes [4] = test: Exocytotic fusion events of Alexa Fluor 546 dextran-labeled vesicles in cultured astrocytes; assay type: cell-based; details: for number of ATP triggered fusion events per cell: 1 mM ATP + 1 μM ADR or 10 μM Iso
Protocol: Time-lapse confocal images were obtained every 2 s for 10 min with the inverted Zeiss LSM780 and Zeiss LSM510 META confocal microscopes with oil-immersion plan apochromatic objective (63×, 1.4 NA) and 543-nm He—Ne laser excitation. […] Cells were scanned by eye for an individual exocytotic event by rapidly replaying the movie in forward and reverse directions. The onset of exocytosis was defined as the first frame showing a significant decrease in Alexa Fluor^546-dextran. A circular region of interest was centered on the spot where the event occurred, and changes in the fluorescence intensities of Alexa Fluor^546-dextran were monitored over time.

[5] = tested on: intracellular cAMP levels in astrocytes; test: FRET measurements of cAMP in living primary astrocytes transfected with Epac1-camps; details: for effect on ADR triggered FRET response: 1 μM ADR
Text: Astrocytes expressing Epac1-camps or AKAR2 FRET construct were examined with a Plan NeoFluoar 40×/1.3 Oil DIC immersion objective (Carl Zeiss, Jena, Germany) and 2-fold zoom factor using Zeiss LSM510 META confocal microscope (Carl Zeiss, Jena, Germany). Cells were excited at 458 nm and images (512×512) were acquired every 3.5 s or 7 s using Lambda stack acquisition. Emission spectra were collected from META detector in eight channels (lambda stack) ranging from 470 nm to 545 nm, each with a 10.7-nm width. Two-channel (CFP and YFP) images were generated from lambda stacks by analytical software “Extract channels”. Channels with emission spectra 470- and 481-nm and emission spectra 513-, 524-, and 534-nm were extracted to CFP channel and YFP channel, respectively. YFP and CFP fluorescence intensities were quantified within a region of interest selected for individual cell expressing Epac1-camps or AKAR2 using LSM 510 META software. In the graphs, FRET signal is reported as the ratio of YFP to CFP fluorescence signal after subtracting the background fluorescence from both YFP and CFP signals using Sigma Plot. The values of FRET signals were normalized (set to 1.0) at the onset of the experiments. The decrease in FRET signals reflects an increase in [cAMP]i.
500 μM 3-Chloro-5-hydroxybenzoic acid (3-Cl-5-HBA; GPR81 receptor exogenous agonist).
The changes in YFP/CFP fluorescence emission ratio were normalized to baseline ratio values. Single-exponential (F=F0+c×exp (−t/τ)) decay functions or single-exponential rise to maximum functions (F=F0+c×(1−exp(−t/τ))) were fitted to the diagrams with YFP/CFP fluorescence emission ratios using SigmaPlot. The time-constant (τ) and YFP/CFP emission ratio amplitudes (c) were determined from the fitted curves. F is YFP/CFP emission ratio at time t, F0 is baseline YFP/CFP emission ratio, c is YFP/CFP emission ratio amplitude of F(t=0)−F0, and τ is the time constant of individual exponential component.

SMILES: O=C(O)c1cc(O)cc(Cl)c1 [3-Cl-5-HBA]
- intracellular cAMP levels (AKAR2 YFP/CFP ratio; uprise = cAMP increase) ([1]; 500 μM 3-Cl-5-HBA): increase in intracellular cAMP levels

SMILES: CNCC(O)c1ccc(O)c(O)c1 (stereo not shown) [ADR, adrenaline]
- decrease in cell area (astrocytes [2]): 5-10%
- increase in cell perimeter (astrocytes [2]): 30-50%
- hypotonically induced cell swelling (increase in cell surface area) (astrocytes [3]): reduces hypotonically induced cell swelling; also recorded: reduced
- frequency of calcium oscillations compared with hypotonic medium-stimulated cells ([Ca2+]i in astrocytes; 1 μM ADR): more frequent
- effect on hypotonicity-elicited periodic elevations in [Ca2+]i ([Ca2+]i in astrocytes): attenuated; also recorded: ceased
- intracellular calcium levels on simultaneous treatment with hypotonic medium ([Ca2+]i in astrocytes): transient increase in intracellular calcium levels, which was followed by a decline to basal levels
- effect on ATP-induced elevation in cytosolic calcium levels ([Ca2+]i in astrocytes): diminishes the elevation in cytosolic calcium levels
- oscillations in intracellular calcium levels ([Ca2+]i in astrocytes): induced oscillations in intracellular calcium levels
- intracellular Ca2+ levels (F/F0) within first 100 s after stimulation ([Ca2+]i in astrocytes; 1 μM ADR): increased
- number of ATP triggered fusion events per cell (astrocytes [4]): reduce the number of exocytotic fusion events; also recorded: diminished
- increase in FRET response to hypotonic medium (decrease in cAMP) ([5]; ADR pre-treated cells, hypotonic medium): reversible and slowly declined to the baseline
- EC50 ([5]; Rattus norvegicus, Astrocyte, read-out: concentration of ADR at which 50% of maximum cAMP increase was observed (EC50), maximum YFP/CFP ratio response, Epac1-camps, dose-response): ~30 nM
- EC50 ([5]; read-out: concentration of ADR at which 50% of maximum cAMP increase was observed (EC50), maximum YFP/CFP ratio response, Epac1-camps, dose-response): 29 ± 0.1 nM

SMILES: Nc1ncnc2c1ncn2[C@@H]1O[C@H](COP(=O)(O)OP(=O)(O)OP(=O)(O)O)[C@@H](O)[C@H]1O [ATP, adenosine-5′-triphosphate]
- intracellular Ca2+ levels (F/F0) within first 100 s after stimulation ([Ca2+]i in astrocytes; 1 μM ADR): increased
- exocytotic fusion release events (astrocytes [4]; 1 mM ATP): triggered exocytotic fusion release events

SMILES: C[C@H]1O[C@@H](n2cnc3c(N)ncnc32)C[C@@H]1O [DDA, 2′,5′-dideoxiadenosine]
- effect on ADR triggered FRET response ([5]; 100 μM DDA): slower decay kinetics

SMILES: CC(C)Cn1c(=O)n(C)c(=O)c2[nH]cnc21 [IBMX]
- effect on Epac1-camps response to FSK ([5]; 200 μM IBMX with 50 μM FSK): increased Epac1-camps response to AC activator FSK

SMILES: CC(C)NCC(O)c1ccc(O)c(O)c1 (stereo not shown) [Iso, isoprenaline]
- hypotonically induced cell swelling (increase in cell surface area) (astrocytes [3]): reduced
- effect on hypotonicity-elicited periodic elevations in [Ca2+]i ([Ca2+]i in astrocytes): ceased
- intracellular calcium levels on simultaneous treatment with hypotonic medium ([Ca2+]i in astrocytes): transient increase in intracellular calcium levels, which was followed by a decline to basal levels
- effect on ATP-induced elevation in cytosolic calcium levels ([Ca2+]i in astrocytes): diminishes the elevation in cytosolic calcium levels
- oscillations in intracellular calcium levels ([Ca2+]i in astrocytes): not
- intracellular Ca2+ levels (F/F0) within first 100 s after stimulation ([Ca2+]i in astrocytes; 1 μM ADR): no significant difference
- number of ATP triggered fusion events per cell (astrocytes [4]): diminished

SMILES: CC(C)NCC(O)COc1cccc2ccccc12 (stereo not shown) [Pro, propranolol]
- effect on ADR triggered FRET response ([5]; 1 μM Pro): completely prevented

SMILES: C[C@H](O)C(=O)[O-].[Na+] [lactate, Sodium L-lactate]
- intracellular cAMP levels (AKAR2 YFP/CFP ratio; uprise = cAMP increase) ([1]; 20 mM lactate): increase in intracellular cAMP levels
- intracellular cAMP levels (Epac1-camps YFP/CFP ratio; decline = cAMP increase) ([5]; 20 mM lactate): increase in intracellular cAMP levels
